In patent US9340537B2, “Benzamide derivatives for inhibiting the activity of ABL1, ABL2 and BCR-ABL1” (NOVATIS AG, priority 2012, dated 2016):
pIC50: −log10 of the molar value.

Experiments:
[1] = target: T1, ABL1 (64-515) (Homo sapiens (Human), UniProt P00519); experiment: Radio ABL1 (64-515) radiometric filter-binding kinase assay; type: biochemical; conditions: 20 μM ATP
[2] = target: T1, ABL1 (64-515); experiment: Caliper ABL1 (64-515) microfluidic mobility shift kinase assay; conditions: read-out: Caliper ABL1 (64-515) IC50

T1 sequence (P00519 64-515): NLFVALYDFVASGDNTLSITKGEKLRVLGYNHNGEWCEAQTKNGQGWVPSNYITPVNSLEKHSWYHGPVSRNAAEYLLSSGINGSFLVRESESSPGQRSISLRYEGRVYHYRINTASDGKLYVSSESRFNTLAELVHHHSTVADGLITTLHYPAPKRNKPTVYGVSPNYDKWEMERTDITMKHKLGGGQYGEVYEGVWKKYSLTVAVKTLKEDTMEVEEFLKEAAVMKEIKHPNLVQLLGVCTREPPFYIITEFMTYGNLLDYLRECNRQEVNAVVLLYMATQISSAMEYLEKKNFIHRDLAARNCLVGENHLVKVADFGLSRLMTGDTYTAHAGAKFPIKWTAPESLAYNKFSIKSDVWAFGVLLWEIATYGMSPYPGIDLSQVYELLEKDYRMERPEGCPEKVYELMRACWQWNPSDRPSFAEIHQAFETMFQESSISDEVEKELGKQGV

pIC50 [1] | pIC50 [2] | Structure (SMILES)
> 10.00 | 9.30 | N#Cc1ccc(-c2cc(C(=O)Nc3ccc(OC(F)(F)F)cc3)ccc2N2C[C@H](O)[C@@H](O)C2)[nH]1 [Example 29, 3-(5-Cyano-1H-pyrrol-2-yl)-4-((3S,4S)-3,4-dihydroxypyrrolidin-1-yl)-N-(4-(trifluoromethoxy)phenyl)benzamide]
> 10.00 | > 9.89 | N#Cc1ccc(-c2cc(C(=O)Nc3ccc(OC(F)(F)F)cc3)cnc2N2C[C@H](O)[C@@H](O)C2)[nH]1 [Example 31, 5-(5-Cyano-1H-pyrrol-2-yl)-6-((3S,4S)-3,4-dihydroxypyrrolidin-1-yl)-N-(4-(trifluoromethoxy)phenyl)nicotinamide]
8.52 | 8.30 | NC12CC1CN(c1ncc(C(=O)Nc3ccc(OC(F)(F)F)cc3)cc1-c1ccn[nH]1)C2 (stereo not drawn) [Example 33, 6-(1-Amino-3-azabicyclo[3.1.0]hexan-3-yl)-5-(1H-pyrazol-5-yl)-N-(4-(trifluoromethoxy)phenyl)nicotinamide]
8.30 | 8.09 | O=C(Nc1ccc(OC(F)(F)F)cc1)c1cnc(N2CCOC(CO)C2)c(-c2ccn[nH]2)c1 (stereo not drawn) [Example 36, 6-(2-(Hydroxymethyl)morpholino)-5-(1H-pyrazol-5-yl)-N-(4-(trifluoromethoxy)phenyl)nicotinamide]
8.10 | 8.82 | CN(C)C1CN(c2ncc(C(=O)Nc3ccc(OC(F)(F)F)cc3)cc2-c2ccn[nH]2)C1 [Example 38, 6-(3-(Dimethylamino)azetidin-1-yl)-5-(1H-pyrazol-5-yl)-N-(4-(trifluoromethoxy)phenyl)nicotinamide]
8.52 | 8.35 | O=C(Nc1ccc(OC(F)(F)F)cc1)c1cnc(N2CC(CO)C2)c(-c2ccn[nH]2)c1 [Example 39, 6-(3-(Hydroxymethyl)azetidin-1-yl)-5-(1H-pyrazol-5-yl)-N-(4-(trifluoromethoxy)phenyl)nicotinamide]
8.40 | 8.28 | CC1(O)CN(c2ncc(C(=O)Nc3ccc(OC(F)(F)F)cc3)cc2-c2ccn[nH]2)C1 [Example 40, 6-(3-Hydroxy-3-methylazetidin-1-yl)-5-(1H-pyrazol-5-yl)-N-(4-(trifluoromethoxy)phenyl)nicotinamide]
8.70 | 7.74 | Cc1cc(-c2cc(C(=O)Nc3ccc(OC(F)(F)F)cc3)cnc2N2CC(CO)C2)[nH]n1 [Example 42, 6-(3-(Hydroxymethyl)azetidin-1-yl)-5-(3-methyl-1H-pyrazol-5-yl)-N-(4-(trifluoromethoxy)phenyl)nicotinamide]
7.72 | 8.15 | N#Cc1cc(-c2cc(C(=O)Nc3ccc(OC(F)(F)F)cc3)cnc2N2CCCC2)[nH]n1 [Example 44, 5-(3-Cyano-1H-pyrazol-5-yl)-6-(pyrrolidin-1-yl)-N-(4-(trifluoromethoxy)phenyl)nicotinamide]
9.00 | 9.40 | N#Cc1ccc(-c2cc(C(=O)Nc3ccc(OC(F)(F)Cl)cc3)cnc2N2C[C@H](O)[C@@H](O)C2)[nH]1 [Example 46, N-(4-(Chlorodifluoromethoxy)phenyl)-5-(5-cyano-1H-pyrrol-2-yl)-6-((3S,4S)-3,4-dihydroxypyrrolidin-1-yl)nicotinamide]
9.05 | 8.80 | Cn1c(C#N)ccc1-c1cc(C(=O)Nc2ccc(OC(F)(F)Cl)cc2)cnc1N1CC[C@@H](O)C1 [Example 47, (R)—N-(4-(Chlorodifluoromethoxy)phenyl)-5-(5-cyano-1-methyl-1H-pyrrol-2-yl)-6-(3-hydroxypyrrolidin-1-yl)nicotinamide]
8.31 | 8.96 | NCC1(F)CCN(c2ncc(C(=O)Nc3ccc(OC(F)(F)Cl)cc3)cc2-c2ccn[nH]2)C1 (stereo not drawn) [Example 51, 6-(3-(Aminomethyl)-3-fluoropyrrolidin-1-yl)-N-(4-(chlorodifluoromethoxy)phenyl)-5-(1H-pyrazol-5-yl)nicotinamide]
